From PubChem BioAssay AID2060359 (Molecular Pharmacology Branch, DTP, NCI, 2025) come the findings set out here.

Structures are written as SMILES. “And” between values parts separate entries of the source, which are not always exact repeats. Equal values may be shown once.

For the assay, the system named is 276233-004-R-J1-PDC spheroids with HUVEC/MSC, viability. In words: Anticancer human tumor 276233-004-R-J1-PDC patient-derived colon adenocarcinoma cell line growth inhibition [TAK]. Conditions: for viability, T/C: stronger effect = lower value. An outline of the steps:
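Drug combinations, each paired with TAK-243 or ipatasertib, were tested on multi-cell spheroids of 60% malignant cells, 25% HUVEC and 15% hMSC. Top concentrations were at or near the clinical Cmax (10 microM if undetermined), decreasing by half-log; viability is given as % test/control.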

Where [1] appears, read: curve of first compound, second compound 0.3 µM.
The mark [2] stands for this setting: curve of first compound, second compound 0.949 µM.
Setting [3] is: curve of first compound, second compound 3 µM.
Setting [4] is: curve of first compound, second compound 9.49 µM.
Where [5] appears, read: curve of first compound, second compound 30 µM.
Setting [6] is: second compound 0.3 µM, first compound 0.000316 µM.
The mark [7] stands for this setting: second compound 0.3 µM, first compound 0.001 µM.
The mark [8] stands for this setting: second compound 0.3 µM, first compound 0.00316 µM.
Where [9] appears, read: second compound 0.3 µM, first compound 0.01 µM.
The mark [10] stands for this setting: second compound 0.3 µM, first compound 0.0316 µM.
Where [11] appears, read: second compound 0.3 µM, first compound 0.1 µM.
[12] abbreviates: second compound 0.949 µM, first compound 0.000316 µM.
Setting [13] is: second compound 0.949 µM, first compound 0.001 µM.
Setting [14] is: second compound 0.949 µM, first compound 0.00316 µM.
[15] abbreviates: second compound 0.949 µM, first compound 0.01 µM.
Where [16] appears, read: second compound 0.949 µM, first compound 0.0316 µM.
Setting [17] is: second compound 0.949 µM, first compound 0.1 µM.
Setting [18] is: second compound 3 µM, first compound 0.000316 µM.
The mark [19] stands for this setting: second compound 3 µM, first compound 0.001 µM.
[20] abbreviates: second compound 3 µM, first compound 0.00316 µM.
Where [21] appears, read: second compound 3 µM, first compound 0.01 µM.
Where [22] appears, read: second compound 3 µM, first compound 0.0316 µM.
Setting [23] is: second compound 3 µM, first compound 0.1 µM.
Setting [24] is: second compound 9.49 µM, first compound 0.000316 µM.
Where [25] appears, read: second compound 9.49 µM, first compound 0.001 µM.
The mark [26] stands for this setting: second compound 9.49 µM, first compound 0.00316 µM.
[27] abbreviates: second compound 9.49 µM, first compound 0.01 µM.
Setting [28] is: second compound 9.49 µM, first compound 0.0316 µM.
Where [29] appears, read: second compound 9.49 µM, first compound 0.1 µM.
The mark [30] stands for this setting: second compound 30 µM, first compound 0.000316 µM.
Where [31] appears, read: second compound 30 µM, first compound 0.001 µM.
Setting [32] is: second compound 30 µM, first compound 0.00316 µM.
The mark [33] stands for this setting: second compound 30 µM, first compound 0.01 µM.
The mark [34] stands for this setting: second compound 30 µM, first compound 0.0316 µM.
The mark [35] stands for this setting: second compound 30 µM, first compound 0.1 µM.
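Also: spheroids exposed to drugs for seven days before the viability read.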

With `CCCS(=O)(=O)Nc1ccc(F)c(C(=O)c2c[nH]c3ncc(-c4ccc(Cl)cc4)cc23)c1F`, the viability, T/C is 81.8% and 103% (compound 0.316 µM); 84.5% and 105% (compound 1 µM); 114% and 104% (compound 3.16 µM); 103% and 121% (compound 10 µM); 103% and 89% (compound 31.6 µM); 99% and 98.9% (compound 100 µM). Also, the IC50 (curve of compound) is more than 100 µM.
Consider `COC1CC2CCC(C)C(O)(O2)C(=O)C(=O)N2CCCCC2C(=O)OC(C(C)CC2CCC(OCCO)C(OC)C2)CC(=O)C(C)C=C(C)C(O)C(OC)C(=O)C(C)CC(C)C=CC=CC=C1C` (stereo unspecified) + CC(C)NCC(C(=O)N1CCN(c2ncnc3c2C(C)CC3O)CC1)c1ccc(Cl)cc1, for which the IC50 runs as follows: under setting [1], more than 0.1 µM; under setting [2], more than 0.1 µM; under setting [3], more than 0.1 µM; under setting [4], more than 0.1 µM; under setting [5], more than 0.1 µM. The viability, T/C reads like this: under setting [6], 126%; under setting [7], 81.9%; under setting [8], 75.9%; under setting [9], 79.3%; under setting [10], 67.5%; under setting [11], 71.3%. In addition, the viability, T/C by setting is: under setting [12], 74.3%; under setting [13], 93.3%; under setting [14], 81.9%; under setting [15], 70.5%; under setting [16], 68.3%; under setting [17], 58.4%. The viability, T/C is 72.3% under setting [18]; 65.5% under setting [19]; 57.4% under setting [20]; 68.2% under setting [21]; 54.9% under setting [22]; 57.9% under setting [23]. For the same compound, the viability, T/C was 55.9% under setting [24]; 57.3% under setting [25]; 49.1% under setting [26]; 53.6% under setting [27]; 51.4% under setting [28]; 54.1% under setting [29]. Also, the viability, T/C is 53.8% under setting [30]; 61% under setting [31]; 48.2% under setting [32]; 54.2% under setting [33]; 59% under setting [34]; 51.7% under setting [35].
With `CC(C)CC(NC(=O)CNC(=O)c1cc(Cl)ccc1Cl)B1OC(=O)CC(CC(=O)O)(C(=O)O)O1` (stereo unspecified) + CC(C)NCC(C(=O)N1CCN(c2ncnc3c2C(C)CC3O)CC1)c1ccc(Cl)cc1, the IC50 reads like this: under setting [1], 0.0539 µM; under setting [2], 0.0523 µM; under setting [3], 0.0421 µM; under setting [4], 0.0317 µM; under setting [5], 0.0175 µM. The viability, T/C is 112% under setting [6]; 103% under setting [7]; 102% under setting [8]; 106% under setting [9]; 81.2% under setting [10]; 14.1% under setting [11]. Also, the viability, T/C under setting [12] is 112%; the viability, T/C under setting [13] is 95.7%; the viability, T/C under setting [14] was 101%; the viability, T/C under setting [15] is 91.3%; the viability, T/C under setting [16] is 82.1%; the viability, T/C under setting [17] is 12%. Also, the viability, T/C is, setting by setting: under setting [18], 90.4%; under setting [19], 89.6%; under setting [20], 84.3%; under setting [21], 79.4%; under setting [22], 64.4%; under setting [23], 10.9%. The viability, T/C reads like this: under setting [24], 74.6%; under setting [25], 84.8%; under setting [26], 65.1%; under setting [27], 71.7%; under setting [28], 49.2%; under setting [29], 13.5%. In addition, the viability, T/C by setting is: under setting [30], 68.2%; under setting [31], 84.8%; under setting [32], 60.5%; under setting [33], 63.7%; under setting [34], 38.3%; under setting [35], 17.2%.
Regarding `CC(C)(C)c1nc(-c2cccc(NS(=O)(=O)c3c(F)cccc3F)c2F)c(-c2ccnc(N)n2)s1`, the viability, T/C is, setting by setting: (compound 0.0316 µM) 93.4% and 107%; (compound 0.1 µM) 86.3% and 116%; (compound 0.316 µM) 113% and 106%; (compound 1 µM) 86.4% and 100%; (compound 3.16 µM) 77.2% and 58.5%; (compound 10 µM) 84.5% and 86.9%. Besides, under “curve of compound”, the IC50 is more than 10 µM.
Regarding `CC(C)CC(NC(=O)C(Cc1ccccc1)NC(=O)c1cnccn1)B(O)O` (stereo unspecified) + CC(C)NCC(C(=O)N1CCN(c2ncnc3c2C(C)CC3O)CC1)c1ccc(Cl)cc1, the IC50 by setting is: under setting [1], 0.00601 µM; under setting [2], 0.00535 µM; under setting [3], 0.00383 µM; under setting [4], 0.00436 µM; under setting [5], 0.00138 µM. Besides, the viability, T/C (second compound 0.3 µM, first compound 31.6 pM) is 103%; the viability, T/C (second compound 0.3 µM, first compound 0.0001 µM) is 100%; the viability, T/C under setting [6] was 109%; the viability, T/C under setting [7] was 109%; the viability, T/C under setting [8] is 104%; the viability, T/C under setting [9] was 6.95%. Further, the viability, T/C was 105% (second compound 0.949 µM, first compound 31.6 pM); 106% (second compound 0.949 µM, first compound 0.0001 µM); 147% under setting [12]; 96.8% under setting [13]; 82.9% under setting [14]; 13% under setting [15]. Besides, the viability, T/C is 73.4% (second compound 3 µM, first compound 31.6 pM); 79.4% (second compound 3 µM, first compound 0.0001 µM); 81.7% under setting [18]; 80.3% under setting [19]; 59.1% under setting [20]; 4.72% under setting [21]. The viability, T/C runs as follows: (second compound 9.49 µM, first compound 31.6 pM) 61%; (second compound 9.49 µM, first compound 0.0001 µM) 80.3%; under setting [24], 73.4%; under setting [25], 66%; under setting [26], 67.7%; under setting [27], 4.19%. For the same compound, the viability, T/C reads like this: (second compound 30 µM, first compound 31.6 pM) 56%; (second compound 30 µM, first compound 0.0001 µM) 53.2%; under setting [30], 55.3%; under setting [31], 61.4%; under setting [32], 33.3%; under setting [33], 20.5%.
`Cc1nc(NC(=O)N2CCCC2C(N)=O)sc1-c1ccnc(C(C)(C)C(F)(F)F)c1` (stereo unspecified): the viability, T/C reads like this: (compound 0.0316 µM) 100% and 88.8%; (compound 0.1 µM) 89.7% and 95.4%; (compound 0.316 µM) 80% and 70.7%; (compound 1 µM) 61.8% and 64.2%; (compound 3.16 µM) 64% and 56.8%; (compound 10 µM) 42.8% and 50.4%. The IC50 (curve of compound) was 6.27 µM and > 10 µM.
In the case of `CC(C)n1nc(-c2ccc3oc(N)nc3c2)c2c(N)ncnc21` + CC(C)NCC(C(=O)N1CCN(c2ncnc3c2C(C)CC3O)CC1)c1ccc(Cl)cc1, the IC50 by setting is: under setting [1], more than 0.1 µM; under setting [2], more than 0.1 µM; under setting [3], more than 0.1 µM; under setting [4], more than 0.1 µM; under setting [5], more than 0.1 µM. In addition, the viability, T/C by setting is: under setting [6], 112%; under setting [7], 98.7%; under setting [8], 89.5%; under setting [9], 90.6%; under setting [10], 78.2%; under setting [11], 60.8%. Further, the viability, T/C by setting is: under setting [12], 104%; under setting [13], 84.9%; under setting [14], 83.9%; under setting [15], 68.1%; under setting [16], 65.3%; under setting [17], 57.2%. Further, the viability, T/C is 84.7% under setting [18]; 81.8% under setting [19]; 72.4% under setting [20]; 63.4% under setting [21]; 69.5% under setting [22]; 58.9% under setting [23]. Also, the viability, T/C is, setting by setting: under setting [24], 74.8%; under setting [25], 77.1%; under setting [26], 74.6%; under setting [27], 70.1%; under setting [28], 66.5%; under setting [29], 60.1%. Further, the viability, T/C under setting [30] is 61.4%; the viability, T/C under setting [31] is 64.7%; the viability, T/C under setting [32] is 59%; the viability, T/C under setting [33] is 64.5%; the viability, T/C under setting [34] is 78.5%; the viability, T/C under setting [35] is 59.7%.
